Assay results reported in US6482805B2 (Parker Hughes Institute, priority 1998, dated 2002).
Read-outs that look alike come from different tables or passages of the source.

How the values were obtained:
HIV-1 = assay: Anti-HIV-1 activity, p24 antigen assay in infected PBMC (Example 1); type: cell-based; conditions: for anti-HIV activity, in words: compared with parent AZT derivatives
Experimental: Subsequently, cells were cultured in 96-well microtiter plates (100 μl/well; 2×10^6/ml, triplicate wells) in the presence and absence of various concentrations (0.00 μM to 100 μM) of drugs for 7 days. Aliquots of culture supernatants were removed from the wells on the 7th day after infection for p24 antigen enzyme immunoassay as an indication of viral replication. Erice et al. Antimicrob. Agents and Chemother. […] Agents and Chemother. […] Percent inhibition of virus replication was calculated by comparing the p24 antigen values from the test drug-treated infected cells with p24 antigen values from untreated infected cells. […] Cell viability was quantified by a colorimetric […] assay. F. M. Uckun et al., Antimicrob. Agents and Chemother.

human sperm = assay: Sperm motility assay by CASA (Example 1); type: cell-based; conditions: for spermicidal activity, in words: compared with related derivatives; for EC50: 3 hours incubation at 37° C., CASA, read-out: EC50, sperm motility
Experimental: All donor specimens were obtained after informed consent and in compliance with the guidelines of the Wayne Hughes Institute Institutional Review Board. Motile sperm (≧10×10^6/ml), were suspended in 0.5 ml of Biggers, Whitten, and Whittingam's medium (BWW) containing 25 mM HEPES (Irvine Scientific, Santa Ana, Calif.), and 0.3% bovine serum albumin (BSA; Fraction V, Sigma Chemical Co, St. Louis, Mo.) in the presence and absence of serial two-fold dilutions of test substance (300 μM to 4.6 μm) in 1% DMSO. The stock solutions of synthetic WHI compounds were prepared in DMSO (10 mg/ml) and diluted in DMSO to yield the desired concentrations. Corresponding volume of DMSO (1%) was added to control tubes. N-9 was diluted in BWW-0.3% BSA (pH 7.4) to yield the desired concentrations (4.6 to 300 μM). After 3 hours of incubation at 37° C., the percentage of motile sperm was evaluated by computer-assisted sperm analysis (CASA) as described [L. J. Burkman, Fertil. Steril. […] The percent motilities were compared with sham-treated control suspensions of motile sperm. […] Non-linear regression analyses were used to determine the EC50 values from the concentration effect curves using GraphPad PRISM software (San Diego, Calif.).
For evaluating sperm motion kinematics using CASA, 4 μl each of sperm suspension was loaded into two 20-μm Microcell chambers (Conception Technologies) that was placed onto a counting chamber at 37° C. At least 5-8 fields per chamber were scanned for analysis using a Hamilton Thorne Integrated Visual Optical System (IVOS), version 10 instrument (Hamilton Thorne Research Inc., Danvers, Mass.). Each field was recorded for 30 seconds. […] The performance of the analyzer was periodically checked using the play-back function. The attributes of sperm kinematic parameters evaluated included numbers of motile (MOT) and progressively (PRG) motile sperm; curvilinear velocity (VCL; a measure of the total distance traveled by a given sperm during the acquisition divided by the time elapsed); average path velocity (VAP; the spatially averaged path that eliminates the wobble of the sperm head), straight line velocity (VSL; the straight-line distance from beginning to end of track divided by time taken), beat cross frequency (BCF, frequency of sperm head crossing sperm average path), the amplitude of lateral head displacement (ALH; the mean width of sperm head oscillation) and the derivatives, straightness ([…]); linearity (LIN=100×VSL/VCL; departure of sperm track from a straight line). Data from each individual cell track were recorded and analyzed. At least 200 motile sperm were analyzed for each aliquot sampled.

sperm acrosome = assay: Sperm acrosome and membrane integrity by FITC-lectin staining, confocal, SEM and TEM (Example 4); type: cell-based, human; conditions: 100 μM WHI compounds or 10 μM Cal A23187, 3 hours
Experimental: The percentages of sperm with an intact acrosome were evaluated by fluorescence microscopy (Olympus BX-60) following fixation and ethanol permeabilization of the sperm pellets and subsequent staining with fluorescein (FITC)-conjugated Pisum sativum lectin (Sigma). In positive control sperm, the acrosome reaction was induced by incubating (3 hours at 37° C.) the sperm suspension with 10 μm calcium ionophore (Cal) A23187 (Sigma). […] The percentage of sperm positive for PI were determined by flow cytometry using a FACS Vantage flow cytometer (Becton Dickinson and Co., Mountain View, Calif.). The sperm in the swim-up fractions were identified by their characteristic forward and 90° angle light scattering properties [O. J. D'Cruz and G. G. Haas, Jr. Fertil. Steril. 58, 633 (1992)]. All analyses were done using the 488-nm excitation from an krypton/argon laser with a 635-nm band pass filter for PI emission. The percentage of sperm positive for PI staining were determined using cutoff signals for membrane-intact motile sperm.
Ethanol permeabilized and air-dried sperm smears were stained sequentially with the three fluorescent markers, FITC-Pisum sativum, TOTO-3 iodide, and Nile red, each marking a different target (acrosome, nucleus, and plasma membrane of permeabilized sperm respectively). Samples were examined under a BioRad MRC-1024 Laser Scanning Confocal Microscope (BioRad Laboratories, Hercules, Calif.) equipped with a krypton/argon mixed gas laser (excitation lines 488, 568, and 647 nm) and mounted on a Nikon Eclipse E800 series upright microscope. The fluorescence emission of fluorescein, TOTO-3 iodide, and Nile red from the acrosomal region, nucleus, and the plasma membrane of sperm after ethanol permeabilization were simultaneously detected using the 598/40 nm, 522 DF32, and 680 DF32 emission/filter respectively. Confocal images were obtained using a Nikon 60× (NA 1.35) objective lens and Kalman collection filter. Digitized images were processed with the Adobe Photoshop software (Adobe Systems, Mountain View, Calif.). Final images were printed using a Fujix Pictography 3000 (Fuji Photo Film Co., Tokyo, Japan) color printer.
High-resolution low-voltage scanning electron microscopy was utilized for topographical imaging of different membrane domains over the sperm head as described [M. H. Stoffel et al. Molecular. Reprod. Develop. 34, 175 (1993); S. L. Erlandsen et al. Scanning 11, 169 (1989)]. […] Washed sperm suspensions were placed on 0.1% poly-L-lysine-coated glass chips and allowed to adhere to the glass over a 60 minute incubation period on ice. The supernatants were decanted, and adherent cells were fixed in 1% paraformaldehyde and 1% glutaraldehyde in 0.14 M sodium cacodylate buffer for 3 hours. To preserve plasma membrane integrity, sperm were post-fixed in 1% osmium tetroxide (OSO4) containing 0.1% ruthenium red in 0.14 M cacodylate buffer for 1 hour at 4° C. All samples were dehydrated through an ascending ethanol series, critical point dried, and coated with approximately 2 nm of platinum using ion beam sputtering with argon (4 mA at 10 ke V; Ion Tech Ltd., Middlesex, England). All samples were examined in a Hitachi S-900 SEM at an accelerating voltage of 2 keV. Sperm were observed under low magnification (×2,000-5000) and representative sperm were photographed under intermediate magnification (×18,000-25,000). In each specimen evaluated, at least 200 sperm were scanned for the intactness of sperm acrosomal region.
For transmission electron microscopy, treated sperm were fixed in 3% glutaraldehyde in 5% sucrose in 0.2 M cacodylate buffer for 3 hours at room temperature. The samples were post-fixed in 1% OSO4, 5% sucrose and 0.1% ruthenium red for 2 hours at 4° C. The samples were dehydrated in ascending ethanol series, and embedded in Spurr's epoxy. Thin sections (90 nm) were prepared on a Reichert-Jung Ultracut E and stained with uranyl acetate and lead citrate.

5-Bromo-6-methoxy-5,6-dihydro-3 ′-deoxythymidine 5′-[Phenyl methoxyalaninyl phosphate] [WHI-12]
anti-HIV activity, in words (HIV-1): reduction in the anti-HIV activity
spermicidal activity, in words (human sperm): improvement of the spermicidal activity

5-Bromo-6-methoxy-5,6-dihydro-3′-deoxythymidine 5′-[p-Bromo phenyl methoxyalaninyl phosphate] [WHI-11]
anti-HIV activity, in words (HIV-1): reduction in the anti-HIV activity
spermicidal activity, in words (human sperm): improvement of the spermicidal activity

5-bromo-6-methoxy-5,6-dihydro-AZT [WHI-01]
anti-HIV activity, in words (HIV-1): without significantly decreasing the anti-HIV activity
EC50 (human sperm): 104 µM

Cc1cn([C@H]2C[C@H](N=[N+]=[N-])[C@@H](CO)O2)c(=O)[nH]c1=O [AZT, 3′-azido-3′-deoxythymidine, reference compound]
IC50 (HIV-1; Human immunodeficiency virus 1, PBMC, 168 h, read-out: IC50, HIV-1 replication (p24 antigen)): 0.006 µM
effect on sperm motion parameters (CASA kinematics) (human sperm): did not alter the sperm motion parameters
effect on sperm motility (human sperm; concentrations as high as 300 μm): did not affect sperm motility

CNc1ccc2oc(C[C@H]3O[C@@]4(CC[C@H]3C)O[C@H]([C@H](C)C(=O)c3ccc[nH]3)[C@H](C)C[C@H]4C)nc2c1C(=O)O [Cal A23187, calcium ionophore (Cal) A23187, reference compound]
sperm head topography by scanning electron microscopy (sperm acrosome): blebbing or vesiculation, fenestration, and loss of plasma and acrosomal membranes

COC1N([C@H]2C[C@H](N)[C@@H](CO)O2)C(=O)NC(=O)C1(C)Br (stereo partly shown) [WHI-03, 5-Bromo-6-methoxy-5,6-dihydro-3′-amino-3 ′-deoxythymidine]
anti-HIV activity, in words (HIV-1): substantially reduced anti-HIV activity
melting point: 188 to 190 °C (dec.)
EC50 (human sperm; Homo sapiens, Sperm): 12 µM
